# Assay results reported in PubChem BioAssay (NCI).
#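 Cultured in 96-well plates, cells were exposed to test compound for 48 hours across five concentrations. At the GI50, growth is halved. TGI denotes the concentration required for complete inhibition of growth.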
# Assays:
# Test in all cases: DTP human tumour cell line panel, 48 h
# EKVX NSCLC = tested on: EKVX NSCLC
# KM12 colon = tested on: KM12 colon
# MOLT-4 leukemia = tested on: MOLT-4 leukemia
# SR leukemia = tested on: SR leukemia
# NCI-H23 lung = tested on: NCI-H23 lung
# NCI/ADR-RES ovarian = tested on: NCI/ADR-RES ovarian
# K-562 leukemia = tested on: K-562 leukemia
# MCF7 breast = tested on: MCF7 breast
# CCRF-CEM leukemia = tested on: CCRF-CEM leukemia
# NCI-H226 lung = tested on: NCI-H226 lung
# RXF 393 renal = tested on: RXF 393 renal
# U251 CNS = tested on: U251 CNS
# UACC-62 melanoma = tested on: UACC-62 melanoma
# MDA-MB-468 breast = tested on: MDA-MB-468 breast
# CAKI-1 renal = tested on: CAKI-1 renal
# TK-10 renal = tested on: TK-10 renal
# DU-145 prostate = tested on: DU-145 prostate
# COLO 205 colon = tested on: COLO 205 colon
# A549 NSCLC = tested on: A549 NSCLC
# 786-0 renal = tested on: 786-0 renal
# OVCAR-8 ovarian = tested on: OVCAR-8 ovarian
# MALME-3M melanoma = tested on: MALME-3M melanoma
# OVCAR-5 ovarian = tested on: OVCAR-5 ovarian
# HS 578T breast = tested on: HS 578T breast
# SF-295 CNS = tested on: SF-295 CNS
# SNB-75 CNS = tested on: SNB-75 CNS
# SK-MEL-5 melanoma = tested on: SK-MEL-5 melanoma
# SK-MEL-2 melanoma = tested on: SK-MEL-2 melanoma
# BT-549 breast = tested on: BT-549 breast
# A498 renal = tested on: A498 renal
# HL-60(TB) leukemia = tested on: HL-60(TB) leukemia
# T-47D breast = tested on: T-47D breast
# UACC-257 melanoma = tested on: UACC-257 melanoma
# SK-OV-3 ovarian = tested on: SK-OV-3 ovarian
# SF-539 CNS = tested on: SF-539 CNS
# SF-268 CNS = tested on: SF-268 CNS
# OVCAR-4 ovarian = tested on: OVCAR-4 ovarian
# SW-620 colon = tested on: SW-620 colon
# HCC-2998 colon = tested on: HCC-2998 colon
# ACHN renal = tested on: ACHN renal
# RPMI-8226 leukemia = tested on: RPMI-8226 leukemia
# HCT-15 colon = tested on: HCT-15 colon
# MDA-MB-231 breast = tested on: MDA-MB-231 breast
# IGROV1 ovarian = tested on: IGROV1 ovarian
# SN12C renal = tested on: SN12C renal
# MDA-MB-435 = tested on: MDA-MB-435
# NCI-H522 lung = tested on: NCI-H522 lung
# SK-MEL-28 melanoma = tested on: SK-MEL-28 melanoma
# LOX IMVI melanoma = tested on: LOX IMVI melanoma
# SNB-19 CNS = tested on: SNB-19 CNS
# HOP-92 NSCLC = tested on: HOP-92 NSCLC
# HCT-116 colon = tested on: HCT-116 colon
# M14 melanoma = tested on: M14 melanoma
# PC-3 prostate = tested on: PC-3 prostate
# UO-31 renal = tested on: UO-31 renal
# NCI-H460 lung = tested on: NCI-H460 lung
# HT29 colon = tested on: HT29 colon
# OVCAR-3 ovarian = tested on: OVCAR-3 ovarian
# HOP-62 NSCLC = tested on: HOP-62 NSCLC
compound,measurement,setting,value
CN(C)c1nc(NCCNS(=O)(=O)c2ccc(C(=O)/C=C/c3ccccc3)cc2)nc(Nc2ccc(F)cc2)n1,GI50,EKVX NSCLC,4.48 µM
same,TGI,EKVX NSCLC,14.8 µM
same,GI50,KM12 colon,3.74 µM
same,TGI,KM12 colon,14 µM
same,GI50,MOLT-4 leukemia,3.22 µM
same,TGI,MOLT-4 leukemia,29.6 µM
same,GI50,SR leukemia,2.58 µM
same,TGI,SR leukemia,8.25 µM
same,GI50,NCI-H23 lung,10.1 µM
same,TGI,NCI-H23 lung,22.5 µM
same,GI50,NCI/ADR-RES ovarian,7.33 µM
same,TGI,NCI/ADR-RES ovarian,21.1 µM
same,GI50,K-562 leukemia,3.34 µM
same,TGI,K-562 leukemia,18.6 µM
same,GI50,MCF7 breast,1.99 µM
same,TGI,MCF7 breast,4.05 µM
same,GI50,CCRF-CEM leukemia,6.59 µM
same,TGI,CCRF-CEM leukemia,> 100 µM
same,GI50,NCI-H226 lung,5.22 µM
same,TGI,NCI-H226 lung,19.8 µM
same,GI50,RXF 393 renal,2.94 µM
same,TGI,RXF 393 renal,14.6 µM
same,GI50,U251 CNS,10.4 µM
same,TGI,U251 CNS,24.5 µM
same,GI50,UACC-62 melanoma,6.68 µM
same,TGI,UACC-62 melanoma,20.3 µM
same,GI50,MDA-MB-468 breast,2.84 µM
same,TGI,MDA-MB-468 breast,12.8 µM
same,GI50,CAKI-1 renal,4.75 µM
same,TGI,CAKI-1 renal,19.7 µM
same,GI50,TK-10 renal,14.6 µM
same,TGI,TK-10 renal,30.9 µM
same,GI50,DU-145 prostate,12.1 µM
same,TGI,DU-145 prostate,25.3 µM
same,GI50,COLO 205 colon,5.46 µM
same,TGI,COLO 205 colon,20.8 µM
same,GI50,A549 NSCLC,8.33 µM
same,TGI,A549 NSCLC,26 µM
same,GI50,786-0 renal,11.2 µM
same,TGI,786-0 renal,25.3 µM
same,GI50,OVCAR-8 ovarian,12.2 µM
same,TGI,OVCAR-8 ovarian,26.4 µM
same,GI50,MALME-3M melanoma,12.7 µM
same,TGI,MALME-3M melanoma,26.3 µM
same,GI50,OVCAR-5 ovarian,13.3 µM
same,TGI,OVCAR-5 ovarian,26.6 µM
same,GI50,HS 578T breast,7.39 µM
same,TGI,HS 578T breast,57.8 µM
same,GI50,SF-295 CNS,6.96 µM
same,TGI,SF-295 CNS,19.3 µM
same,GI50,SNB-75 CNS,3.23 µM
same,TGI,SNB-75 CNS,33.4 µM
same,GI50,SK-MEL-5 melanoma,4.7 µM
same,TGI,SK-MEL-5 melanoma,16.9 µM
same,GI50,SK-MEL-2 melanoma,10.6 µM
same,TGI,SK-MEL-2 melanoma,24.3 µM
same,GI50,BT-549 breast,13.9 µM
same,TGI,BT-549 breast,27.5 µM
same,GI50,A498 renal,11.6 µM
same,TGI,A498 renal,24 µM
same,GI50,HL-60(TB) leukemia,3.88 µM
same,TGI,HL-60(TB) leukemia,29.3 µM
same,GI50,T-47D breast,3.45 µM
same,TGI,T-47D breast,14.2 µM
same,GI50,UACC-257 melanoma,12.6 µM
same,TGI,UACC-257 melanoma,27.8 µM
same,GI50,SK-OV-3 ovarian,13 µM
same,TGI,SK-OV-3 ovarian,29.7 µM
same,GI50,SF-539 CNS,12 µM
same,TGI,SF-539 CNS,24.5 µM
same,GI50,SF-268 CNS,5.65 µM
same,TGI,SF-268 CNS,22.2 µM
same,GI50,OVCAR-4 ovarian,4.39 µM
same,TGI,OVCAR-4 ovarian,23.1 µM
same,GI50,SW-620 colon,5.56 µM
same,TGI,SW-620 colon,20.4 µM
same,GI50,HCC-2998 colon,2.35 µM
same,TGI,HCC-2998 colon,5.46 µM
same,GI50,ACHN renal,4.92 µM
same,TGI,ACHN renal,17.3 µM
same,GI50,RPMI-8226 leukemia,3.04 µM
same,TGI,RPMI-8226 leukemia,> 100 µM
same,GI50,HCT-15 colon,2.04 µM
same,TGI,HCT-15 colon,3.84 µM
same,GI50,MDA-MB-231 breast,4.84 µM
same,TGI,MDA-MB-231 breast,18.1 µM
same,GI50,IGROV1 ovarian,11.2 µM
same,TGI,IGROV1 ovarian,23.8 µM
same,GI50,SN12C renal,8.2 µM
same,TGI,SN12C renal,20.7 µM
same,GI50,MDA-MB-435,7.44 µM
same,TGI,MDA-MB-435,23 µM
same,GI50,NCI-H522 lung,5.47 µM
same,TGI,NCI-H522 lung,20.4 µM
same,GI50,SK-MEL-28 melanoma,10.2 µM
same,TGI,SK-MEL-28 melanoma,22.2 µM
same,GI50,LOX IMVI melanoma,2.47 µM
same,TGI,LOX IMVI melanoma,7.14 µM
same,GI50,SNB-19 CNS,10.4 µM
same,TGI,SNB-19 CNS,23 µM
same,GI50,HOP-92 NSCLC,8.1 µM
same,TGI,HOP-92 NSCLC,23.4 µM
same,GI50,HCT-116 colon,1.72 µM
same,TGI,HCT-116 colon,3.24 µM
same,GI50,M14 melanoma,5.98 µM
same,TGI,M14 melanoma,20 µM
same,GI50,PC-3 prostate,4.39 µM
same,TGI,PC-3 prostate,20.6 µM
same,GI50,UO-31 renal,4.6 µM
same,TGI,UO-31 renal,17.2 µM
same,GI50,NCI-H460 lung,4.34 µM
same,TGI,NCI-H460 lung,16.8 µM
same,GI50,HT29 colon,3.08 µM
same,TGI,HT29 colon,10.6 µM
same,GI50,OVCAR-3 ovarian,8.59 µM
same,TGI,OVCAR-3 ovarian,21.4 µM
same,GI50,HOP-62 NSCLC,11.8 µM
same,TGI,HOP-62 NSCLC,26.8 µM
